This note sets out measurements from ChEMBL document CHEMBL3886262, “Azetidine compounds, compositions and methods of use” (2015).

Structures are written as SMILES.

As a reminder, the IC50 is the midpoint of a concentration-inhibition curve. Higher therefore signals a need for much substance.

This assay addresses T1, Bifunctional epoxide hydrolase 2 (Homo sapiens, UniProt P34913).
T1 sequence (P34913 whole entry): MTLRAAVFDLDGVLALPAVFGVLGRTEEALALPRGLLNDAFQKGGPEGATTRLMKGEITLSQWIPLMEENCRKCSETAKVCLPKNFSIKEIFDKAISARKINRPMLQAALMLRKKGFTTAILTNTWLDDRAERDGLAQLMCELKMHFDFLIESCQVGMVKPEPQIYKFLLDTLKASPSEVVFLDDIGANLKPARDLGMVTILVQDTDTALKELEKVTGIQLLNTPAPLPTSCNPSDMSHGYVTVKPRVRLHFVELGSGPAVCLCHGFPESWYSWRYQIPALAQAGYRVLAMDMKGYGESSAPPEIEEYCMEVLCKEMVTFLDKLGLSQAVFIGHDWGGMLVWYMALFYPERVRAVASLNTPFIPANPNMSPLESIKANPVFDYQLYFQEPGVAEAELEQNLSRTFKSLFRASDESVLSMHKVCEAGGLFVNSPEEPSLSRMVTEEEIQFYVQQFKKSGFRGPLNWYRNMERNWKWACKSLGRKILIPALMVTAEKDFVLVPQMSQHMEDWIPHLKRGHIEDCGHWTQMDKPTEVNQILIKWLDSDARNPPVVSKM
Description: Enzyme Assay: Test compounds (1.6 mM stock in DMSO) were diluted 3 fold in series in DMSO and 0.8 microliters per well were added into 384-well NBS microplates (Corning). Resorufin epoxide substrate (20 uM stock in DMSO) was diluted to 5 μM with Assay Buffer (25 mM bis-Tris-HCl, pH 7.0, 1 mM DTT and 0.2 mg/ml BSA) and 8 microliters per well were added to the microplates. Thirty two microliters per well of 3.6 nM soluble epoxide hydrolase in Assay Buffer was then added. The samples were incubated at room temperature and assay signals were monitored by reading excitation at 530 nm and emission fluorescence at 590 nm on a PlateVision (Zeiss) reader every 2 minutes for 8 times.

Take `O=C(NCc1ccc(Cl)cc1Cl)N1CC2(C1)CN(S(=O)(=O)c1ccccc1)C2`: half-maximal inhibition (IC50) was put at 79 nM.
